According to patent US20030207813A1, “Retroviral protease inhibitor combinations” (priority 1995, published 2003):
≈ marks a conversion by molar mass, not a printed value. Like-named read-outs stand apart in the source and are kept apart here.

Columns and labels:
HIV-1RF = test: CEM-T4 cell infection assay, reverse transcriptase readout, isolate RF; assay type: cell-based; details: Human immunodeficiency virus 1, CEM-T4, 168 h, Table 6, CEM-T4 cells, 7 days, read-out: Virus Isolate (EC50 ng/mL) RF
From the text: (§1) RF represents the HIV-1 strain HIV-LRF and RFR represents a mixture of resistant strains obtained by selection of RF against the compound of Example 1. RFR comprises a mixture of viral strains having protease genotypes of G48V (14/40 clones); G48V, V82A (18/40 clones); G48V, L90S (2/40 clones); G48V, 154T, V82A (1/40 clones); G48M (1/40 clones); G48V, Q61H (1/40 clones); V13I, G48V (1/40 clones); G48V, F53L, V82A (1/40 clones); and G48V, V82A, C95Y (1/40 clones). RFR2 represents a mixture of resistant strains obtained by cloning RFR by three rounds of growth at limiting dilution. RFR2 comprises a mixture of viral strains having protease genotypes of G48V, V82A (13/15 clones); G17E, G48V, V82A (1/15 clones); and G48V, V82A, N37D, N88D (1/15 clones). RFRR represents a mixture of resistant strains obtained by selection of RF against the compounds of Examples 1 and 2 and then cloning by three rounds of growth at limiting dilution. RFRR comprises a mixture of viral strains having protease genotypes of G48V, 154T, L63P, V82A (7/9 clones); G48V, 154T, L63P, V82A, N88S (1/9 clones); and G48V, 154T, L63P, G73M, V82A (1/9 clones). SF162 represents the HIV-1 strain SF-162 and SF162R represents a mixture of resistant strains obtained by selection of SF162 against the compound of Example 1. SF162R comprises a mixture of viral strains having protease genotypes of M461, F53L, L63P, A71V, N88D (2/3 clones); and M46I, F53L, L63P, A71V, N88D, Q92R (1/3 clones). 89-959 represents the HIV-1 strain 89-959 and 89-959R represents a mixture of resistant strains obtained by selection of 89-959 against the compound of Example 2. 89-959R comprises a mixture of viral strains having protease genotypes of N88S (4/5 clones); and D25N, T26A, D30N, D37N, R41K, G73D, R87K, N88S (1/4 clones). NL4 represents the HIV-1 strain HIV-1NL4-3. NL4(G48V) represents a strain having a synthetically generated site-directed mutation in the protease from glycine to valine at amino acid position number 48. NL4(I84V) represents a strain having a synthetically generated site-directed mutation in the protease from isoleucine to valine at amino acid position number 84. NL4(R8Q,M46I) represents a strain having synthetically generated site-directed mutations in the protease from arginine to glutamine at amino acid position number 8 and methionine to isoleucine at amino acid position number 46. NL4(P22-538) represents a mixture of resistant strains obtained by selection of HIV-1NL4-3 against the compound of Example 10 after 22 passages comprising protease genotypes M46I, L63P, A71V, V82F, I84V (4/10); M46I, L63P, V82F, I84V (3/10); and M46I, A71V, V82F, I84V (3/10). NL4(P37-538) represents resistant strains obtained by selection of HIV-1NL4-3 against the compound of Example 10 after 37 passages comprising protease genotype M46I, L63P, A71V, 184A. NL4(538/524) represents resistant strains obtained by selection of NL4(P22-538) against the compound of Example 5 after 24 passages comprising protease genotype M46I, L63P, A71V, 184A. NL4(538/P7-AG) represents a mixture of resistant strains obtained by selection of NL4(P22-538) against the compound of Example 12 after 7 passages comprising protease genotypes M46I, L63P, A71V, 184A; and V321, V82I. NL4(538/P24-AG) represents resistant strains obtained by selection of NL4(P22-538) against the compound of Example 12 after 24 passages comprising protease genotype M46I, L63P, A71V, 184A. NLA(P19-003) represents resistant strains obtained by selection of HIV-1^NL4-3 against the compound of Example 9 after 19 passages comprising protease genotype R8K, M46I. NL4(P34-003) represents resistant strains obtained by selection of HIV-1^NL4-3 against the compound of Example 9 after 34 passages comprising protease genotype R8K, M46I, L63P, A71V, L90M.
(§2) The viral isolate resistance results summarized in Tables 4-6 were generated according to the following assay procedure or minor modifications thereof. Assays are performed in 96-well tissue culture plates. […]

NL4(I84V) = test: Viral isolate resistance assay per Markowitz et al., NL4(I84V); assay type: cell-based, HIV-1; details: Human immunodeficiency virus 1, Table 7
From the text: (§3) RF represents the HIV-1 strain HIV-LRF and RFR represents a mixture of resistant strains obtained by selection of RF against the compound of Example 1. […] RFR2 represents a mixture of resistant strains obtained by cloning RFR by three rounds of growth at limiting dilution. […] RFRR represents a mixture of resistant strains obtained by selection of RF against the compounds of Examples 1 and 2 and then cloning by three rounds of growth at limiting dilution. […] SF162 represents the HIV-1 strain SF-162 and SF162R represents a mixture of resistant strains obtained by selection of SF162 against the compound of Example 1. […] 89-959 represents the HIV-1 strain 89-959 and 89-959R represents a mixture of resistant strains obtained by selection of 89-959 against the compound of Example 2. […] NL4 represents the HIV-1 strain HIV-1NL4-3. NL4(G48V) represents a strain having a synthetically generated site-directed mutation in the protease from glycine to valine at amino acid position number 48. NL4(I84V) represents a strain having a synthetically generated site-directed mutation in the protease from isoleucine to valine at amino acid position number 84. NL4(R8Q,M46I) represents a strain having synthetically generated site-directed mutations in the protease from arginine to glutamine at amino acid position number 8 and methionine to isoleucine at amino acid position number 46.

HIV-1NL4-3 = test: microbe, parasite or virus in culture; assay type: cell-based; details: Human immunodeficiency virus 1, NL4; for EC90: Table 7, read-out: Virus Isolate (EC90 nM) NL4; for EC50: read-out: Virus Isolate (EC50 nM) NL4
From the text: as §3

NL4(P37-538) = test: Viral isolate resistance assay per Markowitz et al., NL4(P37-538); assay type: cell-based, HIV-1
From the text: as §1
The viral isolate resistance results summarized in Tables 7-11 were generated according to the assay procedures described by Markowitz et al., Journal of Virology, vol. […]

[1] = tested on: RFR2 (RFR cloned by three rounds of limiting dilution); test: CEM-T4 cell infection assay, reverse transcriptase readout, resistant isolate RFR2; assay type: cell-based, HIV-1; details: Human immunodeficiency virus 1, 168 h, Table 6, CEM-T4 cells, 7 days, read-out: Virus Isolate (EC50 ng/mL) RFR2
From the text: as §1, §2

[2] = tested on: RFRR (resistant strains selected from RF against Examples 1 and 2); test: CEM-T4 cell infection assay, reverse transcriptase readout, resistant isolate RFRR; assay type: cell-based, HIV-1; details: Human immunodeficiency virus 1, 168 h, Table 6, CEM-T4 cells, 7 days, read-out: Virus Isolate (EC50 ng/mL) RFRR
From the text: as §1, §2

NL4(P22-538) = test: Viral isolate resistance assay per Markowitz et al., NL4(P22-538); assay type: cell-based, HIV-1; details: Human immunodeficiency virus 1, read-out: Virus Isolate (EC50 nM) NL4(P22-538)
From the text: as §1, with “NLA(P19-003) represents resistant strains obtained by selection of HIV-1^NL4-3 against the compound of Example 9 after 19 passages comprising protease genotype R8K, M46I. NL4(P34-003) represents resistant strains obtained by selection of HIV-1^NL4-3 against the compound of Example 9 after 34 passages comprising protease genotype R8K, M46I, L63P, A71V, L90M.” left out

NL4(538/P24-AG) = test: Viral isolate resistance assay per Markowitz et al., NL4(538/P24-AG); assay type: cell-based, HIV-1; details: Human immunodeficiency virus 1; Table 10; NL4(P22-538) selected against Example 12, 24 passages
From the text: as §1, with “NLA(P19-003) represents resistant strains obtained by selection of HIV-1^NL4-3 against the compound of Example 9 after 19 passages comprising protease genotype R8K, M46I. NL4(P34-003) represents resistant strains obtained by selection of HIV-1^NL4-3 against the compound of Example 9 after 34 passages comprising protease genotype R8K, M46I, L63P, A71V, L90M.” left out

NL4(538/524) = test: Viral isolate resistance assay per Markowitz et al., NL4(538/524); assay type: cell-based, HIV-1; details: Human immunodeficiency virus 1; Table 10; NL4(P22-538) selected against Example 5, 24 passages
From the text: as §1, with “NLA(P19-003) represents resistant strains obtained by selection of HIV-1^NL4-3 against the compound of Example 9 after 19 passages comprising protease genotype R8K, M46I. NL4(P34-003) represents resistant strains obtained by selection of HIV-1^NL4-3 against the compound of Example 9 after 34 passages comprising protease genotype R8K, M46I, L63P, A71V, L90M.” left out

NL4(538/P7-AG) = test: Viral isolate resistance assay per Markowitz et al., NL4(538/P7-AG); assay type: cell-based, HIV-1; details: Human immunodeficiency virus 1; Table 10; NL4(P22-538) selected against Example 12, 7 passages
From the text: as §1, with “NLA(P19-003) represents resistant strains obtained by selection of HIV-1^NL4-3 against the compound of Example 9 after 19 passages comprising protease genotype R8K, M46I. NL4(P34-003) represents resistant strains obtained by selection of HIV-1^NL4-3 against the compound of Example 9 after 34 passages comprising protease genotype R8K, M46I, L63P, A71V, L90M.” left out

[3] = Human immunodeficiency virus 1, read-out: Virus Isolate (EC50 nM) NL4(P37-538)

Row | SMILES | EC50 (HIV-1RF) [ng/mL] | EC90 (NL4(I84V)) [nM] | EC90 (HIV-1NL4-3) [nM] | EC50 (HIV-1NL4-3; Table 9) [nM] | EC50 (NL4(P37-538); [3]) [nM] | EC50 [1] [ng/mL] | EC50 [2] [ng/mL] | EC50 (NL4(P22-538)) [nM] | EC50 (NL4(538/P24-AG)) [nM] | EC50 (NL4(538/524)) [nM] | EC50 (NL4(538/P7-AG)) [nM] | EC50 (HIV-1NL4-3; Table 8) [nM] | EC50 (NL4(P37-538); Human immunodeficiency virus 1, Table 9, selected against Example 10, 37 passages, read-out: Virus Isolate (EC50 nM) NL4(P37-538)) [nM]
1 | CC(C)CN(C[C@@H](O)[C@H](Cc1ccccc1)NC(=O)[C@@H](NC(=O)CN1CCCC1)C(C)(C)C)S(=O)(=O)c1ccc2c(c1)OCO2 [Example 14, N-[2R-hydroxy-3-[[(1,3-benzodioxol-5-yl)sulfonyl](2-methylpropyl)amino]-1S-(phenylmethyl)propyl]-2S-[[(pyrrolidin-1-yl)acetyl]amino]-3,3-dimethylbutanamide] | 1 (≈ 1.55 nM) | 72 | 8 | 60 | 1000 | 6 (≈ 9.3 nM) | 39 (≈ 60.5 nM) |  |  |  |  |  | 
2 | CC(C)CN(C[C@@H](O)[C@H](Cc1ccccc1)NC(=O)[C@H](C)CS(C)(=O)=O)S(=O)(=O)c1ccc2c(c1)OCO2 [Example 15, N-[2R-hydroxy-3-[(2-methylpropyl)[(1,3-benzodioxol-5-yl)sulfonyl]amino]-1S-(phenylmethyl)propyl]2S-methyl-3-(methylsulfonyl)propanamide] | 5 (≈ 8.79 nM) |  | 60 | 8 | 1000 | 9 (≈ 15.8 nM) | 21 (≈ 36.9 nM) | 400 |  |  |  |  | 
3 | CNCC(=O)N[C@H](C(=O)N[C@@H](Cc1ccccc1)[C@H](O)CN(CC(C)C)S(=O)(=O)c1ccc2c(c1)OCO2)C(C)(C)C [Example 16, 2S-[[(N-methylamino)acetyl]amino]-N-[2R-hydroxy-3-[[(1,3-benzodioxol-5-yl)sulfonyl](2-methylpropyl)amino]-1S-(phenylmethyl)propyl]-3.3-dimethylbutanamide] | 3 (≈ 4.96 nM) |  | 8 |  |  | 1 (≈ 1.65 nM) | 9 (≈ 14.9 nM) |  | 40 | 40 | 40 | 8 | 40
